The values that follow come from US10000484B2, “Inhibitors of the renal outer medullary potassim channel” (MERCK SHARP & DOHME CORP., priority 2013, dated 2018).

Structures are written as SMILES.

The target in this test is T1, hROMK (hKir1.1) (Homo sapiens, UniProt P48048).
T1 construct: expressed in transfected cells
T1 sequence (P48048 1-391): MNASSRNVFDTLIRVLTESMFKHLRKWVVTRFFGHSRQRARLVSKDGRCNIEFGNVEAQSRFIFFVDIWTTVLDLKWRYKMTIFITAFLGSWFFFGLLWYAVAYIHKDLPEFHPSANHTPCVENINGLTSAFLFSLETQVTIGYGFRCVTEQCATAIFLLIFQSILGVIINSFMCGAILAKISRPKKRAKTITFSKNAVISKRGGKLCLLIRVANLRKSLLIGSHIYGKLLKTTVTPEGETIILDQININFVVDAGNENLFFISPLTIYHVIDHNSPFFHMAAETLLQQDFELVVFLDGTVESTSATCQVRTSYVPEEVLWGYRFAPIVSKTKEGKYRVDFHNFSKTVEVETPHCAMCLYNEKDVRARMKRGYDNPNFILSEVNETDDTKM
In words: Thallium Flux Assay (ROMK channel functional thallium flux assay, FLIPR-Tetra). Format: cell-based. The note with it: HEK293 cells stably expressing hROMK; 30 min incubation with compound. As to the method:
The following Thallium Flux Assay was performed on each of the final product compounds in the Examples. When the final product of an Example was an HCl salt, the salt was run in the Assay.
HEK293 cells stably expressing hROMK (hKir1.1) were grown at 37° C. in a 10% CO2 humidified incubator in complete growth media: Dulbecco's Modified Eagle Medium supplemented with non-essential amino acids, Penicillin/Streptomycin/Glutamine, G418 and FBS. At >80% confluency, aspirate the media from the flask and rinse with 10 mL Calcium/Magnesium-free PBS. Add 5 mL of 1× trypsin (prepared in Ca/Mg Free PBS) to T-225 flask and return flask to 37° C./CO2 incubator for 2-3 minutes. To dislodge the cell, gently bang the side of the flask with your hand. Triturate the cells completely and then transfer the cells to 25 mL complete media. Centrifuge at 1,500 rpm for 6 min followed by resuspension in complete growth media and determine cell concentration. For typical re-seeding, 4E6 cells/T-225 flask will attain >80% confluency in 4 days. Under ideal growth conditions and appropriate tissue culture practices, this cell line is stable for 40-45 passages.
FluxOR Kit Components (Invitrogen F10017)
• FluxOR™ Reagent (Component A) • FluxOR™ Assay Buffer (Component B)—10× Concentrate • PowerLoad™ Concentrate (Component C)—100× Concentrate • Probenecid (Component D)—Lyophilized sample is kept at −20° C. Water soluble, 100× after solubilization in 1 mL water. Store at 4° C. • FluxOR™ Chloride-free Buffer (Component E)—5× Concentrate • Potassium sulfate (K2SO4) Concentrate (Component F)—125 mM in water. Store at 4° C. • Thallium sulfate (Tl2SO4) Concentrate (Component G)—50 mM in water. Store at 4° C. • DMSO (dimethyl sulfoxide, Component H)—1 mL (100%) Reagent Preparation: FluxOR Working Solutions • 1000× FluxOR™ Reagent: Reconstitute a vial of component A in 100 μl DMSO; Mix well; Store 10 μl aliquots at −20° C. • 1× FluxOR™ Assay Buffer: Dilute Component B 10-fold with water; Adjust pH to 7.4 with Hepes/NaOH; Filter and store at 4° C. • Probenecid/Assay Buffer: 100 mL of 1× FluxOR™ Assay Buffer; 1 mL of reconstituted component D; Store at 4° C. • Loading Buffer (per microplate): 10 μl 1000× FluxOR™ Reagent; 100 μl component C; 10 mL Probenecid/Assay Buffer • Compound Buffer (per microplate): 20 mL Probenecid/Assay Buffer; 0.3 mM ouabain (10 mM ouabain in water can be stored in amber bottle/aluminum foil at room temperature); Test compound • 1× FluxOR™ Chloride-Free Buffer: Prepare 1× working solution in water. Can be stored at room temperature • Stimulant Buffer (prepared at 5× final concentration in 1× FluxOR™ Chloride-Free Buffer): 7.5 mM Thallium sulfate and 0.75 mM Potassium sulfate (to give a final assay concentration of 3 mM Thallium/0.3 mM Potassium). Store at 4° C. when not in use. Assay Protocol—
The ROMK channel functional thallium flux assay is performed in 384 wells, using the FLIPR-Tetra instrument. HEK-hKir1.1 cells are seeded in Poly-D-Lysine microplates and kept in a 37° C.-10% CO2 incubator overnight. On the day of the experiment, the growth media is replaced with the FluxOR™ reagent loading buffer and incubated, protected from light, at ambient temperature (23-25° C.) for 90 min. The loading buffer is replaced with assay buffer±test compound followed by 30 min incubation at ambient temperature, where the Thallium/Potassium stimulant is added to the microplate.
1. Seed HEK-hKir1.1 cells (50 μl at 20,000 cells/well) in 384-well PDL coated Microplates
2. Allow cells to adhere overnight in humidified 37° C./10% CO2 incubator
3. Completely remove cell growth media from microplate and replace with 25 μl loading buffer
4. Incubate Microplate at room temperature, protected form light, for 90 min
5. Remove loading buffer and replace with 25 μl 1× Assay Buffer±test compound.
6. Incubate microplate at room temperature, protected from light, for 30 min
7. At FLIPR-Tetra 384: Add stimulant (Thallium/Potassium) solution to microplate and monitor fluorescence. […]
Regarding `Cc1c(CCN2CC[C@@H]3[C@@H](C2)OC(=O)N3Cc2ccc3c(c2C)COC3=O)ccc2c1COC2=O` [Example 29], the IC50 (in general, the concentration needed to halve the response being measured) was 201 nM. For the molecule `Cc1c([C@@H](O)CN2CCc3cc(-c4ccc5c(c4)C[C@H](C)OC5=O)ccc3C2)ccc2c1COC2=O` [Example 47, 2-[(2R)-2-hydroxy-2-(4-methyl-1-oxo-1,3-dihydro-2-benzofuran-5-yl)ethyl]-6-[(3S)-3-methyl-1-oxo-3,4-dihydro-1H-isochromen-6-yl]-1,2,3,4-tetrahydroisoquinoline], the half-maximal inhibitory concentration (IC50) came out at 249 nM.

With `Cc1c(CCN2CCc3nc(-c4ccc(-n5cnnn5)cc4)ncc3C2)ccc2c1COC2=O` [Example 7, 6-[2-(4-methyl-1-oxo-1,3-dihydro-2-benzofuran-5-yl)ethyl]-2-[4-(1H-tetrazol-1-yl)phenyl]-5,6,7,8-tetrahydropyrido[4,3-d]pyrimidine-1,6-diium], the IC50 came to 168 nM. Next, `Cc1c(CCN2CC[C@H]3[C@@H](C2)OC(=O)N3Cc2ccc3c(c2C)COC3=O)ccc2c1COC2=O` [Example 28]: 113 nM; `Cc1c(CCN2CCn3c(-c4ccc5c(c4)COC5=O)cnc3C2)ccc2c1COC2=O` [Example 12, 4-methyl-5-{2-[3-(1-oxo-1,3-dihydro-2-benzofuran-5-yl)-5,6-dihydroimidazo[1,2-a]pyrazin-7(8H)-yl]ethyl}-2-benzofuran-1(3H)-one]: 124 nM. As for `Cc1c(CCN2CCn3nc(-c4ccc5c(c4)COC5=O)nc3C2)ccc2c1COC2=O` [Example 16, 4-methyl-5-{2-[2-(1-oxo-1,3-dihydro-2-benzofuran-5-yl)-5,6-dihydro[1,2,4]triazolo[1,5-a]pyrazin-7(8H)-yl]ethyl}-2-benzofuran-1(3H)-one], the figure is 89 nM; as for `Cc1c(CCN2CCc3nc(-c4ccc(C#N)cc4F)ncc3C2)ccc2c1COC2=O` [Example 26], 314 nM; as for `COc1ccc(-c2ncc3c(n2)CCN(CCc2ccc4c(c2C)COC4=O)C3)cc1C#N` [Example 23], 208 nM.

Turning to `Cc1c(CCN2CCn3cc(-c4ccc5c(c4)COC5=O)nc3C2)ccc2c1COC2=O` [Example 13, 4-methyl-5-{2-[2-(1-oxo-1,3-dihydro-2-benzofuran-5-yl)-5,6-dihydroimidazo[1,2-a]pyrazin-7(8H)-yl]ethyl}-2-benzofuran-1(3H)-one], the IC50 is 134 nM. As for `Cc1cc(C#N)ccc1-c1ncc2c(n1)CCN(CCc1ccc3c(c1C)COC3=O)C2` [Example 1, 3-methyl-4-(6-(2-(4-methyl-1-oxo-1,3-dihydroisobenzofuran-5-yl)ethyl)-5,6,7,8-tetrahydropyrido[4,3-d]pyrimidin-2-yl)benzonitrile], the figure is 477 nM; as for `N#Cc1ccc(-n2cc3c(n2)CCN(CCc2ccc4c(c2)COC4=O)C3)cc1` [Example 5, 4-{5-[2-(1-oxo-1,3-dihydro-2-benzofuran-5-yl)ethyl]-4,5,6,7-tetrahydro-2H-pyrazolo[4,3-c]pyridin-2-yl}benzonitrile], 43.8 nM. Next, `Cc1c(CCN2CCc3nc(-c4ccc(C#N)c(F)c4)ncc3C2)ccc2c1COC2=O` [Example 27]: 70.2 nM; `COc1cc(-c2nnc3n2CCN(CCc2ccc4c(c2C)COC4=O)C3)ccc1C#N` [Example 14, 2-methoxy-4-{7-[2-(4-methyl-1-oxo-1,3-dihydro-2-benzofuran-5-yl)ethyl]-5,6,7,8-tetrahydro[1,2,4]triazolo[4,3-a]pyrazin-3-yl}benzonitrile]: 85 nM.

Regarding `Cc1c(CCN2CCn3c(nn(-c4ccc(C#N)c(F)c4)c3=O)C2)ccc2c1COC2=O` [Example 24, 2-fluoro-4-{7-[2-(4-methyl-1-oxo-1,3-dihydro-2-benzofuran-5-yl)ethyl]-3-oxo-5,6,7,8-tetrahydro[1,2,4]triazolo[4,3-a]pyrazin-2(3H)-yl}benzonitrile], the IC50 worked out at 177 nM. Next, `O=C1OCc2cc(CCN3CCc4nc(-c5ccc(-n6cnnn6)cc5)ncc4C3)ccc21` [Example 6, 6-[2-(1-oxo-1,3-dihydro-2-benzofuran-5-yl)ethyl]-2-[4-(1H-tetrazol-1-34)phenyl]-5,6,7,8-tetrahydropyrido[4,3-d]pyrimidine-1,6-diium]: 74 nM; `Cc1c(C(O)CN2CCc3c(cnn3-c3ccc4c(c3)COC4=O)C2)ccc2c1COC2=O` (stereo not shown) [Example 33, 5-{1-hydroxy-2-[1-(1-oxo-1,3-dihydro-2-benzofuran-5-yl)-1,4,6,7-tetrahydro-5H-pyrazolo[4,3-c]pyridin-5-yl]ethyl}-4-methyl-2-benzofuran-1(3H)-one]: 67 nM.

For `Cc1c(C(O)CN2CCc3nc(-c4ccc(C#N)c(F)c4)ncc3C2)ccc2c1COC2=O` (stereo not shown) [Example 38, 2-fluoro-4-{6-[2-hydroxy-2-(4-methyl-1-oxo-1,3-dihydro-2-benzofuran-5-yl)ethyl]-5,6,7,8-tetrahydropyrido[4,3-d]pyrimidin-2-yl}benzonitrile], the IC50 came out at 82 nM. As for `Cc1c(CCN2CCc3nc(-c4ccc5c(c4)COC5=O)oc3C2)ccc2c1COC2=O` [Example 18, 4-methyl-5-{2-[2-(1-oxo-1,3-dihydro-2-benzofuran-5-yl)-6,7-dihydro[1,3]oxazolo[5,4-c]pyridin-5(4H)-yl]ethyl}-2-benzofuran-1(3H)-one], the figure is 74.7 nM; as for `Cc1c(C(O)CN2CCn3cc(-c4ccc5c(c4)COC5=O)nc3C2)ccc2c1COC2=O` (stereo not shown) [Example 34, 5-{1-hydroxy-2-[2-(1-oxo-1,3-dihydro-2-benzofuran-5-yl)-5,6-dihydroimidazo[1,2-a]pyrazin-7(8H)-yl]ethyl}-4-methyl-2-benzofuran-1(3H)-one], 99.4 nM; as for `Cc1c([C@@H](O)CN2CCc3c(-c4ccc(C#N)c(F)c4)n[nH]c3C2)ccc2c1COC2=O` [Example 42, 3-(4-cyano-3-fluorophenyl)-6-((R)-2-hydroxy-2-(4-methyl-1-oxo-1,3-dihydroisobenzofuran-5-yl)ethyl)-4,5,6,7-tetrahydro-1H-pyrazolo[3,4-c]pyridine], 173 nM. Next, `Cc1c([C@@H](O)CN2CCN3CC(c4ccc5c(c4)C[C@@H](C)OC5=O)C[C@H]3C2)ccc2c1COC2=O` (stereo partly drawn) [Example 46, (3R)-6-{(8aS)-2-[(2R)-2-hydroxy-2-(4-methyl-1-oxo-1,3-dihydro-2-benzofuran-5-yl)ethyl]octahydropyrrolo[1,2-a]pyrazin-7-yl}-3-methyl-3,4-dihydro-1H-isochromen-1-one]: 81.4 nM; `Cc1c(C(O)CN2CCn3c(nn(-c4ccc5c(c4)COC5=O)c3=O)C2)ccc2c1COC2=O` (stereo not shown) [Example 37, 7-[2-hydroxy-2-(4-methyl-1-oxo-1,3-dihydro-2-benzofuran-5-yl)ethyl]-2-(1-oxo-1,3-dihydro-2-benzofuran-5-yl)-5,6,7,8-tetrahydro[1,2,4]triazolo[4,3-a]pyrazin-3(2H)-one]: 291 nM.
